Data as given in PubChem BioAssay (NCI).
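GI50 is the concentration that inhibits growth by half. TGI denotes the concentration required for complete inhibition of growth.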

Columns and labels:
Experiment in all cases: NCI anticancer screen, dose series, 384-well format
A498 renal = system: A498 renal
RPMI-8226 leukemia = system: RPMI-8226 leukemia
M14 melanoma = system: M14 melanoma
SF-295 CNS = system: SF-295 CNS
ACHN renal = system: ACHN renal
OVCAR-5 ovarian = system: OVCAR-5 ovarian
SK-MEL-5 melanoma = system: SK-MEL-5 melanoma
SK-OV-3 ovarian = system: SK-OV-3 ovarian
SN12C renal = system: SN12C renal
BT-549 breast = system: BT-549 breast
NCI-H23 lung = system: NCI-H23 lung
SK-MEL-2 melanoma = system: SK-MEL-2 melanoma
MALME-3M melanoma = system: MALME-3M melanoma

Structure (SMILES): C[C@]12CCCN1CC1=NNC(=O)c3cc(F)cc4[nH]c2c1c34
- GI50 (A498 renal): 18.4 µM
- TGI (A498 renal): 49 µM
- GI50 (RPMI-8226 leukemia): 10.5 µM
- TGI (RPMI-8226 leukemia): 22.9 µM
- GI50 (M14 melanoma): 18.3 µM
- TGI (M14 melanoma): 43.4 µM
- GI50 (SF-295 CNS): 10.7 µM
- TGI (SF-295 CNS): 51.9 µM
- GI50 (ACHN renal): 24 µM
- TGI (ACHN renal): > 76.2 µM
- GI50 (OVCAR-5 ovarian): 17.9 µM
- TGI (OVCAR-5 ovarian): 44.5 µM
- GI50 (SK-MEL-5 melanoma): 19.6 µM
- TGI (SK-MEL-5 melanoma): 36.7 µM
- GI50 (SK-OV-3 ovarian): 35.5 µM
- TGI (SK-OV-3 ovarian): > 100 µM
- GI50 (SN12C renal): 13.1 µM
- TGI (SN12C renal): 35 µM
- GI50 (BT-549 breast): 16.4 µM
- TGI (BT-549 breast): 42.2 µM
- GI50 (NCI-H23 lung): 15.4 µM
- TGI (NCI-H23 lung): 35.5 µM
- GI50 (SK-MEL-2 melanoma): 20.4 µM
- TGI (SK-MEL-2 melanoma): 41.6 µM
- GI50 (MALME-3M melanoma): 34.4 µM
- TGI (MALME-3M melanoma): 83.6 µM
